Data: article PMC5218480 (PLoS ONE, 2017)

Tested on: MV-4-11 cells
Test: Gene expression microarray analysis (Affymetrix PrimeView) and GSEA
Format: cell-based, human
Design: RFU PODN (11730768_x_at) / Fold change /veh PODN (11730768_x_at) / RFU LINC00158 (11744669_a_at) / Fold change /veh LINC00158 (11744669_a_at) / RFU DUSP10 (11751237_a_at) / Fold change /veh DUSP10 (11751237_a_at) / RFU ID3 (11757404_x_at) / Fold change /veh ID3 (11757404_x_at) / RFU PLEKHG5 (11737974_s_at) / Fold change /veh PLEKHG5 (11737974_s_at) / RFU LRRC4B (11730491_at) / Fold change /veh LRRC4B (11730491_at) / RFU GIMAP4 (11747438_a_at) / Fold change /veh GIMAP4 (11747438_a_at) / RFU KRT8 (11758183_x_at) / Fold change /veh KRT8 (11758183_x_at) / RFU CNN1 (11734310_a_at) / Fold change /veh CNN1 (11734310_a_at) / RFU VPS37D (11726825_at) / Fold change /veh VPS37D (11726825_at) / RFU C10orf10 (11716522_x_at) / Fold change /veh C10orf10 (11716522_x_at) / RFU KIR2DL2 /// KIR2DL4 /// KIR2DL5A /// KIR2DL5B /// KIR2DS1 /// KIR2DS2 /// KIR2DS3 /// KIR2DS4 /// KIR3DL3 /// KIR3DL3 /// KIR3DS1 (11738374_at) / Fold change /veh KIR2DL2 /// KIR2DL4 /// KIR2DL5A /// KIR2DL5B /// KIR2DS1 /// KIR2DS2 /// KIR2DS3 /// KIR2DS4 /// KIR3DL3 /// KIR3DL3 /// KIR3DS1 (11738374_at) / RFU C1QL1 (11718748_at) / Fold change /veh C1QL1 (11718748_at) / RFU TMPRSS4 (11747572_a_at) / Fold change /veh TMPRSS4 (11747572_a_at) / RFU HAMP (11756126_x_at) / Fold change /veh HAMP (11756126_x_at) / RFU RNFT2 (11725882_a_at) / Fold change /veh RNFT2 (11725882_a_at) / RFU NR4A2 (11747474_a_at) / Fold change /veh NR4A2 (11747474_a_at) / RFU ABCC12 (11746883_a_at) / Fold change /veh ABCC12 (11746883_a_at) / RFU TMEM136 (11760407_x_at) / Fold change /veh TMEM136 (11760407_x_at) / RFU CLDN22 /// WWC2 (11732394_at) / Fold change /veh CLDN22 /// WWC2 (11732394_at) / RFU HLA-DPB1 (11760878_x_at) / Fold change /veh HLA-DPB1 (11760878_x_at) / RFU SPINT1 (11716480_a_at) / Fold change /veh SPINT1 (11716480_a_at) / RFU GAP43 (11754022_s_at) / Fold change /veh GAP43 (11754022_s_at) / RFU A4GNT (11735810_at) / Fold change /veh A4GNT (11735810_at) / RFU PRB3 (11715151_x_at) / Fold change /veh PRB3 (11715151_x_at) / RFU TUBB4B (11761932_at) / Fold change /veh TUBB4B (11761932_at) / RFU CAPN14 (11732068_a_at) / Fold change /veh CAPN14 (11732068_a_at) / RFU TMCC2 (11721928_a_at) / Fold change /veh TMCC2 (11721928_a_at) / RFU IRGQ (11745062_a_at) / Fold change /veh IRGQ (11745062_a_at) / RFU FAM174B (11720279_a_at) / Fold change /veh FAM174B (11720279_a_at) / RFU TMPRSS4 (11748680_a_at) / Fold change /veh TMPRSS4 (11748680_a_at) / RFU FAM212B (11763350_a_at) / Fold change /veh FAM212B (11763350_a_at) / RFU PLEKHG5 (11743358_a_at) / Fold change /veh PLEKHG5 (11743358_a_at) / RFU ZSCAN30 (11745921_a_at) / Fold change /veh ZSCAN30 (11745921_a_at) / RFU CMKLR1 (11741424_a_at) / Fold change /veh CMKLR1 (11741424_a_at) / RFU LOC101060620 /// MAPK8IP1 (11723275_at) / Fold change /veh LOC101060620 /// MAPK8IP1 (11723275_at) / RFU SPTSSB (11747773_x_at) / Fold change /veh SPTSSB (11747773_x_at) / RFU PRSS12 (11739890_at) / Fold change /veh PRSS12 (11739890_at) / RFU BIN1 (11741810_x_at) / Fold change /veh BIN1 (11741810_x_at) / RFU WNT11 (11732464_a_at) / Fold change /veh WNT11 (11732464_a_at) / RFU C10orf10 (11716521_a_at) / Fold change /veh C10orf10 (11716521_a_at) / RFU C5orf56 (11738089_at) / Fold change /veh C5orf56 (11738089_at) / RFU CYB561 (11721691_x_at) / Fold change /veh CYB561 (11721691_x_at) / RFU ANKRD19P (11752326_a_at) / Fold change /veh ANKRD19P (11752326_a_at) / RFU OR2T12 /// OR2T33 /// OR2T8 (11738714_s_at) / Fold change /veh OR2T12 /// OR2T33 /// OR2T8 (11738714_s_at) / RFU VCAN (11748164_a_at) / Fold change /veh VCAN (11748164_a_at) / RFU JSRP1 (11732532_at) / Fold change /veh JSRP1 (11732532_at) / RFU KRTAP10-11 (11738290_x_at) / Fold change /veh KRTAP10-11 (11738290_x_at) / RFU MYO3A (11730013_a_at) / Fold change /veh MYO3A (11730013_a_at) / RFU EBF3 (11725865_a_at) / Fold change /veh EBF3 (11725865_a_at) / RFU CAMK2N1 (11719241_x_at) / Fold change /veh CAMK2N1 (11719241_x_at) / RFU C5orf56 (11738088_a_at) / Fold change /veh C5orf56 (11738088_a_at) / RFU OLFML3 (11715873_a_at) / Fold change /veh OLFML3 (11715873_a_at) / RFU LOC100653217 /// NTM (11731650_a_at) / Fold change /veh LOC100653217 /// NTM (11731650_a_at) / RFU MAPK11 (11762145_a_at) / Fold change /veh MAPK11 (11762145_a_at) / RFU FIZ1 (11724087_x_at) / Fold change /veh FIZ1 (11724087_x_at) / RFU OASL (11726364_x_at) / Fold change /veh OASL (11726364_x_at) / RFU SOX15 (11748057_x_at) / Fold change /veh SOX15 (11748057_x_at) / RFU CD79A (11719716_a_at) / Fold change /veh CD79A (11719716_a_at) / RFU HIST1H1D (11736915_at) / Fold change /veh HIST1H1D (11736915_at) / RFU CASKIN2 (11723855_a_at) / Fold change /veh CASKIN2 (11723855_a_at) / RFU LOC730098 (11760151_x_at) / Fold change /veh LOC730098 (11760151_x_at) / RFU OR4N2 (11742367_at) / Fold change /veh OR4N2 (11742367_at) / RFU PRRT2 (11749266_a_at) / Fold change /veh PRRT2 (11749266_a_at) / RFU SNX32 (11753110_a_at) / Fold change /veh SNX32 (11753110_a_at) / RFU CDHR5 (11726645_a_at) / Fold change /veh CDHR5 (11726645_a_at) / RFU RCAN1 (11760418_a_at) / Fold change /veh RCAN1 (11760418_a_at) / RFU FAM167A (11723789_a_at) / Fold change /veh FAM167A (11723789_a_at) / RFU FAM26E (11764081_at) / Fold change /veh FAM26E (11764081_at) / RFU ISYNA1 (11749810_s_at) / Fold change /veh ISYNA1 (11749810_s_at) / RFU ACY1 (11761880_at) / Fold change /veh ACY1 (11761880_at) / RFU 11764098_at / Fold change /veh 11764098_at / RFU SAMD14 (11745864_x_at) / Fold change /veh SAMD14 (11745864_x_at) / RFU NPB (11741838_a_at) / Fold change /veh NPB (11741838_a_at) / RFU TMPRSS6 (11731388_a_at) / Fold change /veh TMPRSS6 (11731388_a_at) / RFU KRTAP10-2 (11738614_at) / Fold change /veh KRTAP10-2 (11738614_at) / RFU ARHGAP8 /// PRR5-ARHGAP8 (11727945_x_at) / Fold change /veh ARHGAP8 /// PRR5-ARHGAP8 (11727945_x_at) / RFU KRTAP5-7 /// NADSYN1 (11734609_at) / Fold change /veh KRTAP5-7 /// NADSYN1 (11734609_at) / RFU RASL12 (11751679_a_at) / Fold change /veh RASL12 (11751679_a_at) / RFU CDKN2B (11736163_a_at) / Fold change /veh CDKN2B (11736163_a_at) / RFU PRF1 (11729649_at) / Fold change /veh PRF1 (11729649_at) / RFU, ZNF638 /// ZNF638-IT1 / Fold change vs veh, ZNF638 /// ZNF638-IT1 / RFU, PANK3 / Fold change vs veh, PANK3 / RFU, SH3YL1 / Fold change vs veh, SH3YL1 / RFU, ZEB2 / Fold change vs veh, ZEB2 / RFU, NRIP1 / Fold change vs veh, NRIP1 / RFU, PTTG1IP / Fold change vs veh, PTTG1IP / RFU, CAPN2 / Fold change vs veh, CAPN2 / RFU, MED14 / Fold change vs veh, MED14 / RFU, SNORA58 / Fold change vs veh, SNORA58 / RFU, C1orf63 / Fold change vs veh, C1orf63 / RFU, LRRFIP1 / Fold change vs veh, LRRFIP1 / RFU, NDUFAF7 / Fold change vs veh, NDUFAF7 / RFU, SLC12A2 / Fold change vs veh, SLC12A2 / RFU, IBTK / Fold change vs veh, IBTK / RFU, ESF1 / Fold change vs veh, ESF1 / Fold change vs veh, TMEM50B / RFU, TAOK1 / Fold change vs veh, TAOK1 / RFU, ACBD3 / Fold change vs veh, ACBD3 / RFU, TMA16 / Fold change vs veh, TMA16 / RFU, RWDD3 / Fold change vs veh, RWDD3 / RFU, BCAT1 / Fold change vs veh, BCAT1 / RFU, EDEM3 / Fold change vs veh, EDEM3 / RFU, TMEM33 / Fold change vs veh, TMEM33 / RFU, WDR75 / Fold change vs veh, WDR75 / RFU, AHCTF1 / Fold change vs veh, AHCTF1 / RFU, TFRC / Fold change vs veh, TFRC / RFU, ZDHHC17 / Fold change vs veh, ZDHHC17 / RFU, NOM1 / Fold change vs veh, NOM1 / RFU, ARL8B / Fold change vs veh, ARL8B / RFU, ZBTB11 / Fold change vs veh, ZBTB11 / RFU, TAMM41 / Fold change vs veh, TAMM41 / RFU, KIAA1704 /// LOC100996395 / Fold change vs veh, KIAA1704 /// LOC100996395 / RFU, ING1 / Fold change vs veh, ING1 / RFU, TRMT61B / Fold change vs veh, TRMT61B / RFU, FUBP3 / Fold change vs veh, FUBP3 / RFU, TP53 / Fold change vs veh, TP53 / RFU, TNKS2 / Fold change vs veh, TNKS2 / RFU, ZFP14 / Fold change vs veh, ZFP14 / RFU, ACTR2 / Fold change vs veh, ACTR2 / RFU, PPP3R1 / Fold change vs veh, PPP3R1 / RFU, PIK3R1 / Fold change vs veh, PIK3R1 / RFU, HNRNPA1 / Fold change vs veh, HNRNPA1 / RFU, RNF170 / Fold change vs veh, RNF170 / RFU, ZNF28 / Fold change vs veh, ZNF28 / RFU, RNGTT / Fold change vs veh, RNGTT / RFU, OGT / Fold change vs veh, OGT / RFU, BRD1 / Fold change vs veh, BRD1 / RFU, MARS / Fold change vs veh, MARS / RFU, ZNF655 / Fold change vs veh, ZNF655 / RFU, FAHD1 / Fold change vs veh, FAHD1 / RFU, BDP1 / Fold change vs veh, BDP1 / RFU, LRRCC1 / Fold change vs veh, LRRCC1 / RFU, ARID1A / Fold change vs veh, ARID1A / RFU, ZNF146 / Fold change vs veh, ZNF146 / RFU, ZNF330 / Fold change vs veh, ZNF330 / RFU, GPN3 / Fold change vs veh, GPN3 / RFU, C9orf123 / Fold change vs veh, C9orf123 / RFU, N4BP2L2 / Fold change vs veh, N4BP2L2 / RFU, ARFIP1 / Fold change vs veh, ARFIP1 / RFU, FAM179B / Fold change vs veh, FAM179B / RFU, BCL10 / Fold change vs veh, BCL10 / RFU, UHRF1BP1L / Fold change vs veh, UHRF1BP1L / RFU, BET1 / Fold change vs veh, BET1 / RFU, CNOT2 / Fold change vs veh, CNOT2 / RFU, ZNF268 / Fold change vs veh, ZNF268 / Fold change vs veh, ZNF507 / RFU, DGCR2 / Fold change vs veh, DGCR2 / RFU, WDSUB1 / Fold change vs veh, WDSUB1 / Fold change vs veh, HSP90B1 /// MIR3652 / RFU, ADSS / Fold change vs veh, ADSS / RFU, GK / Fold change vs veh, GK / RFU, ZNF148 / Fold change vs veh, ZNF148 / RFU, TAF9 / Fold change vs veh, TAF9 / RFU, SLC1A5 / Fold change vs veh, SLC1A5 / RFU, SLMO2 / Fold change vs veh, SLMO2 / RFU, ABCC4 / Fold change vs veh, ABCC4 / RFU, LOC101060439 /// RAP1B / Fold change vs veh, LOC101060439 /// RAP1B / RFU, RFX7 / Fold change vs veh, RFX7 / RFU, GTPBP10 / Fold change vs veh, GTPBP10 / RFU, CNEP1R1 / Fold change vs veh, CNEP1R1 / RFU, BIVM-ERCC5 /// ERCC5 / Fold change vs veh, BIVM-ERCC5 /// ERCC5 / RFU, ILF3 / Fold change vs veh, ILF3 / RFU 11762660_at / Fold change /veh 11762660_at / RFU VCAN (11757783_s_at) / Fold change /veh VCAN (11757783_s_at) / RFU DDX43 (11728927_at) / Fold change /veh DDX43 (11728927_at) / RFU KRT8 (11758188_x_at) / Fold change /veh KRT8 (11758188_x_at) / RFU NKD1 (11759106_at) / Fold change /veh NKD1 (11759106_at) / RFU SRD5A1 (11742802_a_at) / Fold change /veh SRD5A1 (11742802_a_at) / RFU TPSAB1 /// TPSB2 (11721975_s_at) / Fold change /veh TPSAB1 /// TPSB2 (11721975_s_at) / RFU GSTM3 (11746129_a_at) / Fold change /veh GSTM3 (11746129_a_at) / RFU IL23R (11737362_x_at) / Fold change /veh IL23R (11737362_x_at) / RFU TMEM51 (11727254_a_at) / Fold change /veh TMEM51 (11727254_a_at) / RFU PIWIL2 (11732686_x_at) / Fold change /veh PIWIL2 (11732686_x_at) / RFU ORM1 (11744905_x_at) / Fold change /veh ORM1 (11744905_x_at) / RFU CCDC152 (11743942_at) / Fold change /veh CCDC152 (11743942_at) / RFU ECM1 (11717891_a_at) / Fold change /veh ECM1 (11717891_a_at) / RFU IL23R (11748794_a_at) / Fold change /veh IL23R (11748794_a_at) / RFU TNFAIP8L3 (11732012_x_at) / Fold change /veh TNFAIP8L3 (11732012_x_at) / RFU MBOAT4 (11741988_at) / Fold change /veh MBOAT4 (11741988_at) / RFU 11764193_at / Fold change /veh 11764193_at / RFU TMEM53 (11763286_at) / Fold change /veh TMEM53 (11763286_at) / RFU MAGEB2 (11727129_at) / Fold change /veh MAGEB2 (11727129_at) / RFU TMEM200A (11744735_a_at) / Fold change /veh TMEM200A (11744735_a_at) / RFU CCDC152 (11751479_a_at) / Fold change /veh CCDC152 (11751479_a_at) / RFU FAM211A (11726209_a_at) / Fold change /veh FAM211A (11726209_a_at) / RFU RGS16 (11746705_a_at) / Fold change /veh RGS16 (11746705_a_at) / RFU VCAN (11755009_s_at) / Fold change /veh VCAN (11755009_s_at) / RFU RHOB (11743442_s_at) / Fold change /veh RHOB (11743442_s_at) / RFU RGS16 (11720943_a_at) / Fold change /veh RGS16 (11720943_a_at) / RFU RGS16 (11720944_at) / Fold change /veh RGS16 (11720944_at) / RFU, VPS4B / Fold change vs veh, VPS4B / RFU, CREB1 / Fold change vs veh, CREB1 / RFU, DNAJC13 / Fold change vs veh, DNAJC13 / RFU, GNAQ / Fold change vs veh, GNAQ / RFU, CDK5R1 / Fold change vs veh, CDK5R1 / RFU, ZRANB3 / Fold change vs veh, ZRANB3 / RFU, CUL4A / Fold change vs veh, CUL4A / RFU, CCNY / Fold change vs veh, CCNY / RFU, UFL1 / Fold change vs veh, UFL1 / RFU, COG3 / Fold change vs veh, COG3 / RFU, DIAPH2 / Fold change vs veh, DIAPH2 / RFU, SKA2 / Fold change vs veh, SKA2 / RFU, AFF3 / Fold change vs veh, AFF3 / RFU, LMF1 / Fold change vs veh, LMF1 / RFU, IPO11 / Fold change vs veh, IPO11 / RFU, DFFB / Fold change vs veh, DFFB / RFU, FOXP1 / Fold change vs veh, FOXP1 / RFU, CARD8 / Fold change vs veh, CARD8 / RFU, STRN3 / Fold change vs veh, STRN3 / RFU, ADK / Fold change vs veh, ADK / RFU, RASSF2 / Fold change vs veh, RASSF2 / RFU, WIPF1 / Fold change vs veh, WIPF1 / RFU, LARP1B / Fold change vs veh, LARP1B / RFU, RASA1 / Fold change vs veh, RASA1 / RFU, RB1 / Fold change vs veh, RB1 / RFU, PPFIA1 / Fold change vs veh, PPFIA1 / RFU, MAT2A / Fold change vs veh, MAT2A / RFU, CCT5 / Fold change vs veh, CCT5 / RFU, WDR92 / Fold change vs veh, WDR92 / RFU, CUX1 / Fold change vs veh, CUX1 / RFU, TTC7A / Fold change vs veh, TTC7A / RFU, TMEM135 / Fold change vs veh, TMEM135 / RFU, DEPTOR / Fold change vs veh, DEPTOR / RFU, CPM / Fold change vs veh, CPM / RFU, DNAJB6 / Fold change vs veh, DNAJB6 / RFU, CACNA2D3 / Fold change vs veh, CACNA2D3 / RFU, DTX4 / Fold change vs veh, DTX4 / RFU, TFCP2 / Fold change vs veh, TFCP2 / RFU, GMCL1 /// GMCL1P1 / Fold change vs veh, GMCL1 /// GMCL1P1 / RFU, AEBP2 / Fold change vs veh, AEBP2 / RFU, SNHG1 /// SNORD22 /// SNORD25 /// SNORD26 /// SNORD27 /// SNORD28 /// SNORD29 /// SNORD31 / Fold change vs veh, SNHG1 /// SNORD22 /// SNORD25 /// SNORD26 /// SNORD27 /// SNORD28 /// SNORD29 /// SNORD31 / Fold change (Aza/veh), C12orf56 (ProbeSet 11735607_a_at) / Fold change (ACY-1035/veh), C12orf56 (ProbeSet 11735607_a_at) / Fold change (Aza/veh), FGFR1OP (ProbeSet 11751329_s_at) / Fold change (ACY-1035/veh), FGFR1OP (ProbeSet 11751329_s_at) / Fold change (Aza/veh), VPS36 (ProbeSet 11739960_a_at) / Fold change (ACY-1035/veh), VPS36 (ProbeSet 11739960_a_at) / RFU SYPL1 (11715823_x_at) / Fold change /veh SYPL1 (11715823_x_at) / RFU IGFBP7 (11715501_s_at) / Fold change /veh IGFBP7 (11715501_s_at) / RFU REEP3 (11722064_at) / Fold change /veh REEP3 (11722064_at) / RFU IGLL1 (11728026_x_at) / Fold change /veh IGLL1 (11728026_x_at): dose or concentration left out as unconfirmed
Conditions: ProbeSet 11728271_at; LIST B

Q: With Nc1ncn([C@@H]2O[C@H](CO)[C@@H](O)[C@H]2O)c(=O)n1 [azacitidine] as the compound, how does the “Fold change vs veh, ZNF330” value read?
A: 0.94
